The text below walks through data of ChEMBL document CHEMBL1201862, “PubChem BioAssay data set” (2004).

SMILES strings stand for the structures.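 96-well plates; 48 h exposure; 5 concentrations. Endpoints by linear interpolation between flanking doses. Not reached: highest tested concentration assigned. The concentration for 50% growth inhibition is given as GI50.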 Activity calls are given as the source filed them. No stated cut-off is given here; in the data, active = GI50 up to about 1.1 µM and inactive = higher.

By GI50 is commonly meant the concentration that inhibits growth by half.

Common to all, as to assay: DTP human tumour cell line panel, 48 h
The subject of assay [1] is HCT-15.
Assay [2] has as its system NCI-H522.
In assay [3] the test system is NCI-H23.
Assay [4] relates to SK-OV-3.
In assay [5] the test system is COLO 205.
The test system of assay [6] is MDA-MB-435.
Assay [7] deals with HCT-116.
Assay [8] relates to Malme-3M.
Assay [9] relates to T47D.
Assay [10] deals with SNB-19.
For assay [11], the system named is DU-145.
Assay [12] has as its system UO-31.
For assay [13], the system named is OVCAR-3.
Assay [14] has as its system SR.
The test system of assay [15] is 786-0.
Assay [16] relates to MDA-N.
The test system of assay [17] is SN12C.
The test system of assay [18] is OVCAR-4.
Assay [19] relates to OVCAR-8.
Assay [20] relates to IGROV-1.

`COc1cc(C(=O)Nc2nnc(S(N)(=O)=O)s2)cc(OC)c1OC`: the concentration for 50% growth inhibition (GI50) is over 100 µM in assay [1]; > 100 µM (inactive) in assay [2]; > 100 µM (inactive) in [3]; > 100 µM (inactive) in assay [4]; > 100 µM (inactive) in assay [5]; > 100 µM (inactive) in assay [6]. In addition, the GI50 in assay [7], in assay [8], in assay [9], in assay [10], in [11] and in assay [12] was > 100 µM (inactive) in each case. In addition, the GI50 in assay [13], in assay [14], in assay [15], in [16], in assay [17] and in [18] was > 100 µM (inactive) in each case. Further, in [19], the GI50 is > 100 µM (inactive).

Turning to `O=[N+]([O-])C(=C1Nc2ccccc2N1)C(Cl)=C(Cl)Cl`, the GI50 is > 100 µM (inactive) in [20]; 38.2 µM in [1]; > 100 µM (inactive) in assay [2]; 84.5 µM (inactive) in assay [3]; > 100 µM (inactive) in assay [4]; > 100 µM (inactive) in assay [5]. For the same compound, the GI50 in assay [6] is 88.1 µM (inactive); in [7], 88.1 µM (inactive); in assay [8], 30.3 µM (inactive); in assay [9], 31.1 µM (inactive); in [10], > 100 µM (inactive); in [11], > 100 µM (inactive). Also, the GI50 in assay [12] was 65 µM (inactive); in [13] it was 18.6 µM (inactive); in assay [14] it was 51.3 µM (inactive); in [15] it was 63.4 µM (inactive); in assay [16], > 100 µM (inactive); in assay [17] it was > 100 µM (inactive). For the same compound, the GI50 was 27 µM (inactive) in [18] and 74.5 µM (inactive) in [19].

In the case of `Cc1[nH]n(-c2ccccc2)c(=O)c1C(N(CCc1ccccc1)C1=NCC(C)S1)(C(F)(F)F)C(F)(F)F` (configuration not stated), the GI50 in assay [1] was 13.3 µM; in assay [2], 4.35 µM (inactive); in assay [3], 5.16 µM (inactive); in assay [4], 25.4 µM (inactive); in assay [5], 6.27 µM (inactive); in assay [6], 10.2 µM (inactive). Moreover, the GI50 in [7] is 10.1 µM (inactive); in assay [8] it was 11.1 µM (inactive); in assay [9], 5.19 µM (inactive); in assay [10] it was 15.5 µM (inactive); in [11] it was 27.2 µM (inactive); in assay [12], 10.4 µM (inactive). The GI50 is 8.77 µM (inactive) in [13]; 22.3 µM (inactive) in [14]; 13.9 µM (inactive) in [15]; 8.63 µM (inactive) in assay [16]; 17.8 µM (inactive) in [17]; 10.8 µM (inactive) in assay [18].

Turning to `O=c1oc2ccccc2c(-c2ccc(O)cc2)c1Oc1ccccc1`, the GI50 in [20] was 6.44 µM (inactive); in [1], 7.83 µM; in assay [2], 3.47 µM (inactive); in assay [3] it was 6.32 µM (inactive); in assay [4], 34.8 µM (inactive); in [5], 29.4 µM (inactive). The GI50 in assay [6] was 22.1 µM (inactive); in [7], 20 µM (inactive); in [8], 2.58 µM (inactive); in assay [9], > 100 µM (inactive); in [10], 17.7 µM (inactive); in [11], 4.25 µM (inactive). Further, the GI50 in [12] was 7.73 µM (inactive); in assay [13], 17.5 µM (inactive); in assay [14], 41.8 µM (inactive); in [15], 23.1 µM (inactive); in assay [16], 14.3 µM (inactive); in [17], 21.5 µM (inactive). Besides, the GI50 in assay [18] was 20.4 µM (inactive).

As to `O=C1NC(NCc2ccc(F)cc2)=N/C1=C\c1ccccc1Cl`, the GI50 is 19.2 µM (inactive) in assay [20]; 19.1 µM in [1]; 13.8 µM (inactive) in assay [2]; 26.3 µM (inactive) in assay [4]; 17.4 µM (inactive) in assay [5]; 17.9 µM (inactive) in [6]. Besides, the GI50 was 14.5 µM (inactive) in assay [7]; 16.8 µM (inactive) in [8]; 5.41 µM (inactive) in assay [9]; 19.8 µM (inactive) in assay [10]; 19.9 µM (inactive) in [11]; 16.5 µM (inactive) in [13]. The GI50 in [14] was 14.1 µM (inactive); in assay [15], 11.2 µM (inactive); in assay [16], 16.8 µM (inactive); in [17] it was 14.8 µM (inactive); in assay [18] it was 23.9 µM (inactive); in assay [19] it was 14.4 µM (inactive).

Regarding `CCN(CC)CC(=O)O[C@]1(CC)C(=O)OCc2c1cc1n(c2=O)Cc2cc3ccccc3nc2-1`, the GI50 in assay [20] was 0.11 µM (active); in assay [1], 0.17 µM; in assay [2] it was 0.0247 µM (active); in [3], < 0.016 µM (active); in assay [4] it was 0.0826 µM (active); in assay [5], 0.209 µM (active). Besides, the GI50 in assay [6] is 0.0703 µM (active); in [7], 0.0307 µM (active); in assay [8], 0.219 µM (active); in [9] it was < 0.01 µM (active); in [10], < 0.01 µM (active); in assay [11], < 0.01 µM (active). In addition, the GI50 is 0.0196 µM (active) in assay [12]; 0.219 µM (active) in assay [13]; < 0.01 µM (active) in assay [14]; < 0.0107 µM (active) in assay [15]; 0.0951 µM (active) in assay [16]; 0.0204 µM (active) in assay [17]. In addition, the concentration for 50% growth inhibition (GI50) was 0.201 µM (active) in assay [18] and 0.0285 µM (active) in assay [19].

Regarding `Cc1nn(-c2ccccc2)c2c1N=C(C(=O)O)CC(c1ccccc1)=N2`, the GI50 is > 10 µM (inactive) in assay [20]; over 10 µM in assay [1]; > 10 µM (inactive) in [2]; > 10 µM (inactive) in [3]; > 10 µM (inactive) in [4]; > 10 µM (inactive) in assay [5]. Also, the GI50 in [6], in assay [7], in assay [8], in assay [9], in assay [10] and in assay [11] was > 10 µM (inactive) throughout. In addition, the GI50 in assay [13], in assay [14], in [15], in assay [16], in assay [17] and in [18] was > 10 µM (inactive) in each case. Further, the GI50 in assay [19] is > 10 µM (inactive).

In the case of `N=C(N)NS(=O)(=O)c1ccc(NNc2c3ccccc3nc3ccccc23)cc1`, the GI50 in assay [20] is 15.2 µM (inactive); in [1] it was 18.6 µM; in [2] it was 3.86 µM (inactive); in assay [3], 9.29 µM (inactive); in assay [4], 11.1 µM (inactive); in assay [5] it was 12.6 µM (inactive). The GI50 in assay [6] is 16.2 µM (inactive); in assay [7], 8.34 µM (inactive); in [8], 17.3 µM (inactive); in [9], 5.73 µM (inactive); in [10], 8.34 µM (inactive); in [11] it was 2.58 µM (inactive). Further, the GI50 in assay [12] is 13.6 µM (inactive); in assay [13] it was 4.04 µM (inactive); in [14] it was 0.596 µM (active); in [15], 10.1 µM (inactive); in assay [16], 13.2 µM (inactive); in assay [17], 4.23 µM (inactive). The values for the GI50 in assay [18] and in [19] were 4.85 µM (inactive) and 6.38 µM (inactive), respectively.

Regarding `C=C1C(=O)OC2C1CC(O)/C(C)=C\CCC1(C)OC21` (configuration not stated), the GI50 is 32.5 µM (inactive) in assay [20]; 16.3 µM in assay [1]; 14.8 µM (inactive) in [2]; 31.3 µM (inactive) in [3]; 49.9 µM (inactive) in assay [4]; 29.8 µM (inactive) in assay [5]. Moreover, the GI50 in assay [6] was 27.2 µM (inactive); in [7] it was 29.8 µM (inactive); in assay [8], 19.2 µM (inactive); in assay [9], 46.1 µM (inactive); in [10] it was 48.1 µM (inactive); in [11] it was 32.8 µM (inactive). Besides, the GI50 in [12] is 22.9 µM (inactive); in [13] it was 17.4 µM (inactive); in [14] it was 20.2 µM (inactive); in assay [15], 31 µM (inactive); in assay [16], 19.1 µM (inactive); in assay [18], 25.6 µM (inactive). The GI50 in [19] is 33.8 µM (inactive).

With `C=C[C@]1(O)CCC[C@]2(C)C(=O)CCC12C` (some centres not stated), the GI50 was > 100 µM (inactive) in assay [20]; over 100 µM in [1]; > 100 µM (inactive) in assay [2]; > 100 µM (inactive) in assay [3]; > 100 µM (inactive) in assay [4]; > 100 µM (inactive) in assay [5]. In addition, the GI50 in assay [6], in assay [7], in assay [8], in [9], in assay [10] and in [11] was > 100 µM (inactive) throughout. For the same compound, the GI50 in assay [12], in [13], in assay [14], in assay [15], in assay [16] and in assay [17] was > 100 µM (inactive) throughout. The GI50 in [18] and in assay [19] was > 100 µM (inactive) each time.

On to `O=c1cc(-c2ccccc2F)[nH]c2cc3c(cc12)OCO3`, for which the GI50 in [20] was 0.118 µM (active); in [1], 0.0417 µM; in assay [2], 0.0402 µM (active); in [3], 0.35 µM (active); in assay [4], 0.201 µM (active); in assay [5] it was 0.0512 µM (active). In addition, the GI50 was < 0.01 µM (active) in assay [6]; 0.0489 µM (active) in assay [7]; 0.053 µM (active) in assay [8]; > 100 µM (inactive) in assay [9]; 0.202 µM (active) in assay [10]; 0.0399 µM (active) in [11]. Moreover, the 50% growth inhibitory concentration (GI50) in assay [12] is 0.711 µM (active); in assay [13], 0.0341 µM (active); in assay [14], 0.0147 µM (active); in assay [15] it was 0.182 µM (active); in assay [16], < 0.01 µM (active); in assay [17], 0.281 µM (active). Moreover, the GI50 in assay [18] was > 24.6 µM (inactive); in [19] it was 0.265 µM (active).
